Experimental data published in the NIST ThermoML archive (doi:10.1016/j.tca.2013.08.031).

Assay: molar heat capacity at constant volume
Conditions: Fluid (supercritical or subcritical phases), Vacuum adiabatic calorimetry

CCC(C)O (stereo unspecified) [butan-2-ol]
Conditions | molar heat capacity at constant volume [J/K/mol]
538.48 K, Mass density=279.19 kg/m3 | 275.36
538.48 K, Mass density=284.93 kg/m3 | 266.32
538.48 K, Mass density=286.65 kg/m3 | 296.63
538.48 K, Mass density=301.19 kg/m3 | 256.46
538.66 K, Mass density=117 kg/m3 | 318.5
538.66 K, Mass density=284.93 kg/m3 | 265.65
538.66 K, Mass density=286.65 kg/m3 | 296.86
538.66 K, Mass density=301.19 kg/m3 | 250.53
538.84 K, Mass density=117 kg/m3 | 306.2
538.84 K, Mass density=286.65 kg/m3 | 297.08
539.03 K, Mass density=286.65 kg/m3 | 296.34
539.57 K, Mass density=286.65 kg/m3 | 285.07
539.76 K, Mass density=279.19 kg/m3 | 283.52
539.76 K, Mass density=286.65 kg/m3 | 288.78
539.94 K, Mass density=184.89 kg/m3 | 261.35
539.94 K, Mass density=276.45 kg/m3 | 295.89
539.94 K, Mass density=279.19 kg/m3 | 284.48
539.94 K, Mass density=286.65 kg/m3 | 282.33
540.12 K, Mass density=184.89 kg/m3 | 273.06
540.12 K, Mass density=276.45 kg/m3 | 293.89
540.12 K, Mass density=279.19 kg/m3 | 283.74
540.12 K, Mass density=286.65 kg/m3 | 282.03
540.12 K, Mass density=403.55 kg/m3 | 223.85
540.3 K, Mass density=184.89 kg/m3 | 272.25
540.3 K, Mass density=276.45 kg/m3 | 297.6
540.3 K, Mass density=286.65 kg/m3 | 280.4
540.3 K, Mass density=403.55 kg/m3 | 225.33
540.48 K, Mass density=184.89 kg/m3 | 275.73
540.48 K, Mass density=276.45 kg/m3 | 293.15
540.48 K, Mass density=403.55 kg/m3 | 226.81
540.67 K, Mass density=184.89 kg/m3 | 280.18
540.67 K, Mass density=279.19 kg/m3 | 274.92
540.67 K, Mass density=403.55 kg/m3 | 223.85
540.85 K, Mass density=184.89 kg/m3 | 275.21
540.85 K, Mass density=279.19 kg/m3 | 281.29
540.85 K, Mass density=403.55 kg/m3 | 223.11
541.03 K, Mass density=279.19 kg/m3 | 276.47
541.03 K, Mass density=403.55 kg/m3 | 220.88
541.21 K, Mass density=279.19 kg/m3 | 278.4
541.4 K, Mass density=279.19 kg/m3 | 276.92
542.67 K, Mass density=301.19 kg/m3 | 240.15
542.85 K, Mass density=301.19 kg/m3 | 240.9
543.03 K, Mass density=301.19 kg/m3 | 240.15
547.21 K, Mass density=286.65 kg/m3 | 273.21
547.39 K, Mass density=286.65 kg/m3 | 272.69
547.57 K, Mass density=284.93 kg/m3 | 247.34
547.57 K, Mass density=286.65 kg/m3 | 276.33
547.75 K, Mass density=284.93 kg/m3 | 250.31
547.75 K, Mass density=286.65 kg/m3 | 276.62
547.93 K, Mass density=284.93 kg/m3 | 248.31
547.93 K, Mass density=286.65 kg/m3 | 276.1
548.11 K, Mass density=284.93 kg/m3 | 247.79
548.11 K, Mass density=286.65 kg/m3 | 276.33
548.11 K, Mass density=347.06 kg/m3 | 235.71
548.29 K, Mass density=284.93 kg/m3 | 248.68
548.29 K, Mass density=286.65 kg/m3 | 278.03
548.29 K, Mass density=347.06 kg/m3 | 236.45
548.47 K, Mass density=284.93 kg/m3 | 248.31
548.47 K, Mass density=286.65 kg/m3 | 278.55
548.47 K, Mass density=347.06 kg/m3 | 235.71
548.65 K, Mass density=286.65 kg/m3 | 278.03
548.65 K, Mass density=347.06 kg/m3 | 234.22
550.28 K, Mass density=284.93 kg/m3 | 236.74
550.46 K, Mass density=284.93 kg/m3 | 238.08
550.46 K, Mass density=403.55 kg/m3 | 218.66
550.64 K, Mass density=403.55 kg/m3 | 217.92
550.82 K, Mass density=284.93 kg/m3 | 236.52
550.82 K, Mass density=403.55 kg/m3 | 220.88
551 K, Mass density=284.93 kg/m3 | 236.3
551 K, Mass density=403.55 kg/m3 | 220.88
551.18 K, Mass density=403.55 kg/m3 | 220.14
551.36 K, Mass density=403.55 kg/m3 | 220.88
557.3 K, Mass density=286.65 kg/m3 | 252.16
557.3 K, Mass density=347.06 kg/m3 | 220.14
557.48 K, Mass density=286.65 kg/m3 | 253.13
557.48 K, Mass density=347.06 kg/m3 | 220.88
557.66 K, Mass density=286.65 kg/m3 | 251.94
557.66 K, Mass density=347.06 kg/m3 | 217.92
557.84 K, Mass density=286.65 kg/m3 | 252.16
557.84 K, Mass density=347.06 kg/m3 | 220.14
558.02 K, Mass density=286.65 kg/m3 | 253.64
558.2 K, Mass density=284.93 kg/m3 | 236.45
558.2 K, Mass density=286.65 kg/m3 | 258.98
558.38 K, Mass density=284.93 kg/m3 | 243.27
558.38 K, Mass density=286.65 kg/m3 | 261.43
558.56 K, Mass density=284.93 kg/m3 | 241.49
558.56 K, Mass density=286.65 kg/m3 | 257.05
558.74 K, Mass density=284.93 kg/m3 | 241.71
558.74 K, Mass density=286.65 kg/m3 | 258.02
558.92 K, Mass density=284.93 kg/m3 | 246.38
558.92 K, Mass density=286.65 kg/m3 | 259.28
559.09 K, Mass density=286.65 kg/m3 | 264.39
559.27 K, Mass density=286.65 kg/m3 | 254.83
559.45 K, Mass density=286.65 kg/m3 | 252.68
559.63 K, Mass density=286.65 kg/m3 | 264.39
560.64 K, Mass density=284.93 kg/m3 | 246.75
560.89 K, Mass density=286.65 kg/m3 | 262.17
561.24 K, Mass density=286.65 kg/m3 | 254.83
561.42 K, Mass density=286.65 kg/m3 | 257.28
561.6 K, Mass density=286.65 kg/m3 | 257.79
561.78 K, Mass density=286.65 kg/m3 | 256.83
561.96 K, Mass density=286.65 kg/m3 | 257.57
562.14 K, Mass density=286.65 kg/m3 | 257.05
562.32 K, Mass density=286.65 kg/m3 | 258.98
562.49 K, Mass density=286.65 kg/m3 | 254.61
562.67 K, Mass density=286.65 kg/m3 | 256.61
